One block for each molecule: values may come before it.
Columns and labels:
[1] = test system: Human immunodeficiency virus 1; experiment: Antiviral activity against HIV 1 NL4-3 infected in human MT2 cells assessed as inhibition of replication by XTT assay; format: functional, organism-based; conditions: Human immunodeficiency virus 1, NL4-3, MT2
[2] = test system: Human immunodeficiency virus 1; experiment: Antiviral activity against recombinant HIV 1 expressing luciferase and envelope glycoprotein of HIV-1 YU-2 infected in Cf2Th-CCR5 cells assessed as inhibition of viral infection by measuring luciferase activity; format: functional, organism-based; conditions: Human immunodeficiency virus 1, Cf2Th-CCR5
[3] = test system: Human immunodeficiency virus 1; experiment: Antiviral activity against HIV 1 NL4-3 infected in human C8166 cells expressing LTR-luciferase reporter gene assessed as inhibition of viral replication pretreated with virus for 1.5 hrs followed by compound addition and measured after 3 days; format: functional, organism-based; conditions: Human immunodeficiency virus 1, NL4-3, C8166
[4] = Modulation of capsid disassembly in HIV 1 NL4-3 infected in human C8166 cells expressing LTR-luciferase reporter gene assessed as inhibition of viral protein disassembly; format: functional, cell-based; conditions: Human immunodeficiency virus 1, NL4-3, C8166
[5] = test system: Human immunodeficiency virus 1; experiment: Antiviral activity against HIV 1 in human C8166 cells expressing LTR-luciferase reporter gene assessed as inhibition of viral replication incubated for 72 hrs by multiple-cycle viral replication assay; format: functional, organism-based; conditions: Human immunodeficiency virus 1, C8166, 72 h
[6] = test system: Human immunodeficiency virus 1; experiment: Antiviral activity against HIV 1 infected in human SUP-T1 cells assessed as inhibition of viral replication by measuring luciferase activity after 72 hrs by steady glo reagent based luminescence assay; format: functional, organism-based; conditions: Human immunodeficiency virus 1, SUP-T1, 72 h
[7] = test system: Human immunodeficiency virus 1; experiment: Antiviral activity against HIV 1 NL4-3; format: functional, organism-based; conditions: Human immunodeficiency virus 1, NL4-3
[8] = test system: Human immunodeficiency virus 1; experiment: Antiviral activity against HIV 1 NL4-3 infected in […] MT2 cells assessed as reduction in luciferase activity incubated for 4 to 5 days; format: functional, organism-based; conditions: Human immunodeficiency virus 1, NL4-3, MT2
[9] = test system: Human immunodeficiency virus 2; experiment: Antiviral activity against HIV 2; format: functional, organism-based
[10] = Metabolic stability in C57Bl/6 mouse liver microsomes assessed as half life by LC-MS/MS analysis; format: ADME, Microsome
[11] = test system: Human immunodeficiency virus 1; experiment: Antiviral activity against HIV 1; format: functional, organism-based
[12] = test system: Human immunodeficiency virus 1; experiment: Antiviral activity against HIV 1 infected in human TZM-bl cells by MTT assay; format: functional, organism-based; conditions: Human immunodeficiency virus 1, TZM-bl
[13] = test system: TZM; experiment: Cytotoxicity against human TZM-bl cells assessed as reduction in cell viability incubated for 1 day by CytoTox-Glo stain based assay; format: functional; conditions: 24 h
[14] = test system: Human immunodeficiency virus 1; experiment: Antiviral activity against HIV 1 infected in human PBMC cells assessed as viral inhibition incubated for 7 days with media replacement for every 3 days by ELISA; format: functional, organism-based; conditions: Human immunodeficiency virus 1, PBMC
[15] = test system: Human immunodeficiency virus 1; experiment: Antiviral activity against HIV 1 infected in HeLa cells transfected with CD4,[…] and LacZ gene assessed as reduction in viral replication measured after 72 hrs by ELISA; format: functional, organism-based; conditions: Human immunodeficiency virus 1, HeLa
[16] = molecular target: Structural capsid protein (Human immunodeficiency virus 1, UniProt Q76129); experiment: Inhibition of HIV 1 capsid CTD dimerization incubated for 5 hrs by TR-FRET assay
Sequence of Structural capsid protein (Q76129 whole entry): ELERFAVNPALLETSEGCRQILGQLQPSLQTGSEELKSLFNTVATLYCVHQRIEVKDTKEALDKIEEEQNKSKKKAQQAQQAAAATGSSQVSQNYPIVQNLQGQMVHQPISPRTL

[17] = test system: Human immunodeficiency virus 1; experiment: Antiviral activity against HIV 1 infected in […] MT4 cells; format: functional, organism-based; conditions: Human immunodeficiency virus 1, MT4
[18] = test system: MT4; experiment: Cytotoxicity against […] MT4 cells; format: functional; conditions: Homo sapiens
[19] = test system: Human immunodeficiency virus 1; experiment: Antiviral activity against HIV 1 assessed as log 10 reduction in viral load; format: functional

- IC50 [2]: 22500 nM
SMILES: O=C(O)c1ccc(-c2nc(-c3ccccc3)c(-c3ccccc3)[nH]2)cc1

- EC50 [5]: 1400 nM
- EC50 [6]: 1800 nM
SMILES: O=C1NC(c2cccnc2)c2c(-c3ccccc3)n[nH]c21 (stereo not given)

- EC50 [8]: 0.025 nM
SMILES: Cn1nc(NS(C)(=O)=O)c2cccc(-n3c([C@H](Cc4cc(F)cc(F)c4)NC(=O)Cn4nc(C(F)F)c5c4C(F)(F)[C@H]4C[C@@H]54)nc4cc(-c5ncccn5)ccc4c3=O)c21

- IC50 [2]: 33300 nM
SMILES: O=C(O)c1ccc(-c2nc(-c3ccc4oc5ccc(-c6nc(-c7ccc(C(=O)O)cc7)[nH]c6-c6ccccc6)cc5c4c3)c(-c3ccccc3)[nH]2)cc1

- EC50 [17]: 0.1 nM
SMILES: CC(C)(C#Cc1ccc(-c2ccc(Cl)c3c(NS(C)(=O)=O)nn(CC(F)(F)F)c23)c([C@H](Cc2cc(F)cc(F)c2)NC(=O)Cn2nc(C(F)(F)F)c3c2C(F)(F)[C@@H]2C[C@H]32)n1)S(C)(=O)=O [LENACAPAVIR]
- CC50 [18]: 27000 nM
- log(activity) [19]: 0.5

The remaining lines, values behind:

SMILES: Cc1[nH]c2ccccc2c1CC(=O)N[C@@H](Cc1ccccc1)C(=O)N(C)c1ccccc1
- EC50 [1]: 570 nM

SMILES: CCc1cc(-c2ccc(C(F)(F)F)o2)n(-c2ccc3c(c2)nc(-c2cc(C(=O)N4CCCC4)ccc2O)n3Cc2ccc(=O)[nH]c2)n1
- EC50 [3]: 62 nM
- IC50 [4]: 61 nM

SMILES: O=C(O)c1ccc(-c2ccc3c(c2)nc(-c2c[nH]nc2-c2cccc(Cl)c2)n3CCCn2ccnc2)cc1
- IC50 [7]: 57000 nM

SMILES: CC(C)(C#Cc1ccc(-c2ccc(Cl)c3c(NS(=O)(=O)C4CC4)nn(CC(F)(F)F)c23)c([C@H](Cc2cc(F)cc(F)c2)NC(=O)Cn2nc(C(F)(F)F)c3c2C(F)(F)[C@@H]2C[C@H]32)n1)S(C)(=O)=O
- EC50 [9]: 0.14 nM
- half-life [10]: 7.2 h
- EC50 [11]: 0.14 nM

SMILES: COc1ccc(N(C)C(=O)[C@H](Cc2cc(F)cc(F)c2)NC(=O)c2cccc(-c3cn(-c4ccc([N+](=O)[O-])cc4)nn3)c2)cc1
- EC50 [12]: 2130 nM
- CC50 [13]: > 35500 nM

SMILES: CCCCC[C@](C)(NC(=O)[C@H](CC(C)C)NC(=O)[C@H](CC(C)C)NC(=O)[C@H](CC(=O)O)NC(=O)[C@](C)(CCCCC)NC(=O)[C@H](Cc1ccccc1)NC(=O)[C@@H](NC(=O)[C@@H](N)[C@@H](C)CC)[C@@H](C)O)C(=O)N[C@@H](Cc1ccc(O)cc1)C(=O)N[C@@H](Cc1ccc(O)cc1)C(=O)NCC(=O)N1CCC[C@H]1C(=O)O
- IC50 [14]: 4000 nM

SMILES: O=c1c2ccccc2[se]n1-c1ccccc1 [EBSELEN]
- EC50 [15]: 4250 nM
- IC50 [16]: 46.7 nM
